Source: ChEMBL document CHEMBL5257072, “Synthesis of Lathyrol PROTACs and Evaluation of Their Anti-Inflammatory Activities” (J Nat Prod, 2023)
Calls of active or inactive are those of the source. The calls are words filed in the database; no cut-off is given here.

Legend:
RAW264.7 [1] = test: Anti-inflammatory activity in mouse RAW264.7 cells assessed as inhibition of LPS-induced NO production incubated for 3 hrs followed by LPS addition and measured after 24 hrs; type: functional, cell-based
RAW264.7 [2] = test: Cytotoxicity against mouse RAW264.7 cells assessed as reduction in cell viability incubated for 24 hrs by CCK-8 method; type: functional, cell-based; conditions: RAW264.7, 24 h
RAW264.7 [3] = test: Cytotoxicity against mouse RAW264.7 cells assessed as reduction in cell viability at 25 uM incubated for 24 hrs by CCK-8 method; type: functional, cell-based
[4] = target: Transcription factor MafF (Mus musculus) (UniProt O54791); test: Induction of degradation of MAFF in mouse RAW264.7 cells at 2.5 to 20 uM measured after 24 hrs; type: cell-based; conditions: dose 2.5-20 µM
Chain of Transcription factor MafF (Mus musculus) (O54791 whole entry): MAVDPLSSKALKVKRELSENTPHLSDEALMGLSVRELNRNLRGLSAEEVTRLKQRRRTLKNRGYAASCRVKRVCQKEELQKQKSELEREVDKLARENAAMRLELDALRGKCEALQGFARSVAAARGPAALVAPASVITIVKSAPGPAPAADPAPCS

[5] = target: Transcription factor MafF (Mus musculus) (UniProt O54791); test: Induction of degradation of MAFF in mouse RAW264.7 cells at 20 uM measured after 24 hrs; type: cell-based
RAW264.7 [6] = test: Antiinflammatory activity in LPS induced mouse RAW264.7 cells assessed as inhibition of […] phosphorylation at 5 to 20 uM by immunofluorescence analysis; type: functional, cell-based; conditions: dose 5-20 µM
RAW264.7 [7] = test: Antiinflammatory activity in LPS induced mouse RAW264.7 cells assessed as upregulation of heme oxygenase I expression at 5 to 20 uM; type: functional, cell-based; conditions: dose 5-20 µM
RAW264.7 [8] = test: Induction of autophagy in LPS induced mouse RAW264.7 cells assessed as increase in p62 expression at 5 to 40 uM by Western blot analysis; type: functional, cell-based; conditions: dose 5-40 µM
RAW264.7 [9] = test: Induction of autophagy in LPS induced mouse RAW264.7 cells assessed as increase in LC3B-II expression at 5 to 40 uM by Western blot analysis; type: functional, cell-based; conditions: dose 5-40 µM
RAW264.7 [10] = test: Antiinflammatory activity in LPS induced mouse RAW264.7 cells assessed as inhibition of NF-kappaB phosphorylation at 5 to 20 uM by immunofluorescence analysis; type: functional, cell-based; conditions: dose 5-20 µM
[11] = target: Transcription factor MafF (Mus musculus) (UniProt O54791); test: Induction of degradation of MAFF in mouse RAW264.7 cells assessed as reduction in MAFF expression at 20 uM measured after 24 hrs; type: cell-based
RAW264.7 [12] = test: Antiinflammatory activity in LPS induced mouse RAW264.7 cells assessed as reduction in inducible nitric oxide synthase by immunofluorescence analysis; type: functional, cell-based; conditions: dose 5-20 µM
RAW264.7 [13] = test: Antiinflammatory activity in LPS induced mouse RAW264.7 cells assessed as inhibition of nuclear translocation of NF-kappaB at 20 uM by immunofluorescence analysis; type: functional, cell-based
[14] = target: Transcription factor MafF (Mus musculus) (UniProt O54791); test: Induction of degradation of MAFF in mouse RAW264.7 cells at 40 uM measured after 24 hrs; type: cell-based
RAW264.7 [15] = test: Antiinflammatory activity in LPS induced mouse RAW264.7 cells assessed as upregulation of Nrf2 expression at 5 to 20 uM; type: functional, cell-based; conditions: dose 5-20 µM
RAW264.7 [16] = test: Antiinflammatory activity in LPS induced mouse RAW264.7 cells assessed as inhibition of ROS production by DCFH-DA staining based fluorescence assay; type: functional, cell-based; conditions: dose 5-20 µM
[17] = target: Transcription factor MafF (Mus musculus) (UniProt O54791); test: Induction of degradation of MAFF in mouse RAW264.7 cells at 20 uM incubated for 24 hrs in presence of MG132 by Western blot analysis; type: cell-based

IC50 (RAW264.7 [1]) [µM] | Structure (SMILES) | IC50 (RAW264.7 [2]) [µM] | further results
> 20 | C=C1CC[C@H]2[C@@H](/C=C(\C)C(=O)[C@@]3(O)C[C@H](C)[C@H](O)[C@@H]3[C@H]1OCc1cn(CCCCCC(=O)N[C@H](C(=O)N3C[C@H](O)C[C@H]3C(=O)N[C@H](C)c3ccc(-c4scnc4C)cc3)C(C)(C)C)nn1)C2(C)C | > 50 | 
> 20 | C=C1CC[C@H]2[C@@H](/C=C(\C)C(=O)[C@@]3(O)C[C@H](C)[C@H](O)[C@@H]3[C@H]1OCc1cn(CC(=O)N[C@H](C(=O)N3C[C@H](O)C[C@H]3C(=O)NCc3ccc(-c4scnc4C)cc3)C(C)(C)C)nn1)C2(C)C | > 50 | 
> 20 | C=C1CC[C@H]2[C@@H](/C=C(\C)C(=O)[C@@]3(O)C[C@H](C)[C@H](O)[C@@H]3[C@H]1OCc1cn(CCCCCC(=O)N[C@H](C(=O)N3C[C@H](O)C[C@H]3C(=O)NCc3ccc(-c4scnc4C)cc3)C(C)(C)C)nn1)C2(C)C |  | Activity (RAW264.7 [3]): Active
> 20 | C=C1CC[C@H]2[C@@H](/C=C(\C)C(=O)[C@@]3(O)C[C@H](C)[C@H](O)[C@@H]3[C@H]1OCc1cn(CCCC(=O)N[C@H](C(=O)N3C[C@H](O)C[C@H]3C(=O)N[C@H](C)c3ccc(-c4scnc4C)cc3)C(C)(C)C)nn1)C2(C)C | > 50 | 
> 20 | C=C1CC[C@H]2[C@@H](/C=C(\C)C(=O)[C@@]3(O)C[C@H](C)[C@H](O)[C@@H]3[C@H]1OCc1cn(CCCC(=O)N[C@H](C(=O)N3C[C@H](O)C[C@H]3C(=O)NCc3ccc(-c4scnc4C)cc3)C(C)(C)C)nn1)C2(C)C | > 50 | 
> 20 | C=C1CC[C@H]2[C@@H](/C=C(\C)C(=O)[C@@]3(O)C[C@H](C)[C@H](O)[C@@H]3[C@H]1OCc1cn(CC(=O)N[C@H](C(=O)N3C[C@H](O)C[C@H]3C(=O)N[C@H](C)c3ccc(-c4scnc4C)cc3)C(C)(C)C)nn1)C2(C)C | > 50 | 

The remaining lines, values behind:

Structure (SMILES) | IC50 (RAW264.7 [1]) [µM] | IC50 (RAW264.7 [2]) [µM] | further results
C=C1CC[C@H]2[C@@H](/C=C(\C)C(=O)[C@@]3(O)C[C@H](C)[C@H](O)[C@@H]3[C@H]1OCc1cn(CCOCCOCCOCCOCCNC(=O)[C@H](CC(C)C)NC(=O)[C@@H](O)[C@@H](Cc3ccccc3)NC(=O)OC(C)(C)C)nn1)C2(C)C | > 20 | > 50 | 
C=C1CC[C@H]2[C@@H](/C=C(\C)C(=O)[C@@]3(O)C[C@H](C)[C@H](O)[C@@H]3[C@H]1OCc1cn(CC(=O)N[C@H](Cc3ccccc3)[C@H](O)C(=O)N[C@@H](CC(C)C)C(=O)OC)nn1)C2(C)C | > 20 | > 50 | 
C=C1CC[C@H]2[C@@H](/C=C(\C)C(=O)[C@@]3(O)C[C@H](C)[C@H](O)[C@@H]3[C@H]1OCc1cn(CCOCCOCCOCCNC(=O)CN3CCN(C(=O)N4C(c5ccc(OC)cc5OC(C)C)=N[C@H](c5ccc(Cl)cc5)[C@@H]4c4ccc(Cl)cc4)CC3=O)nn1)C2(C)C | > 20 |  | Activity (RAW264.7 [3]): Active
C=C1CC[C@H]2[C@@H](/C=C(\C)C(=O)[C@@]3(O)C[C@H](C)[C@H](O)[C@@H]3[C@H]1OCc1cn(CCOCCOCCOCCOCCNC(=O)CN3CCN(C(=O)N4C(c5ccc(OC)cc5OC(C)C)=N[C@H](c5ccc(Cl)cc5)[C@@H]4c4ccc(Cl)cc4)CC3=O)nn1)C2(C)C | > 20 |  | Activity (RAW264.7 [3]): Active
C=C1CC[C@H]2[C@@H](/C=C(\C)C(=O)[C@@]3(O)C[C@H](C)[C@H](O)[C@@H]3[C@H]1OCc1cn(CCOCCOCCNC(=O)CN3CCN(C(=O)N4C(c5ccc(OC)cc5OC(C)C)=N[C@H](c5ccc(Cl)cc5)[C@@H]4c4ccc(Cl)cc4)CC3=O)nn1)C2(C)C | > 20 |  | Activity (RAW264.7 [3]): Active
C=C1CC[C@H]2[C@@H](/C=C(\C)C(=O)[C@@]3(O)C[C@H](C)[C@H](O)[C@@H]3[C@H]1OCc1cn(CCCCCC(=O)N[C@H](Cc3ccccc3)[C@H](O)C(=O)N[C@@H](CC(C)C)C(=O)OC)nn1)C2(C)C | > 20 | > 50 | 
C=C1CC[C@H]2[C@@H](/C=C(\C)C(=O)[C@@]3(O)C[C@H](C)[C@H](O)[C@@H]3[C@H]1OCc1cn(CCOCCOCCNC(=O)[C@H](CC(C)C)NC(=O)[C@@H](O)[C@@H](Cc3ccccc3)NC(=O)OC(C)(C)C)nn1)C2(C)C | 5.3 | > 50 | Activity [4]: Active; Activity [5]: Active; Activity (RAW264.7 [6]): Active; Activity (RAW264.7 [7]): Active; Activity (RAW264.7 [8]): Active; Activity (RAW264.7 [9]): Active; Activity (RAW264.7 [10]): Active; Activity [11]: Active; Activity (RAW264.7 [12]): Dose-Dependent Effect; Activity (RAW264.7 [13]): Active; Activity [14]: inactive; Activity (RAW264.7 [15]): Active; Activity (RAW264.7 [16]): Dose-Dependent Effect; Activity [17]: inactive
C=C1CC[C@H]2[C@@H](/C=C(\C)C(=O)[C@@]3(O)C[C@H](C)[C@H](O)[C@@H]3[C@H]1OCc1cn(CCCC(=O)N[C@H](Cc3ccccc3)[C@H](O)C(=O)N[C@@H](CC(C)C)C(=O)OC)nn1)C2(C)C | > 20 | > 50 | 
C=C1CC[C@H]2[C@@H](/C=C(\C)C(=O)[C@@]3(O)C[C@H](C)[C@H](O)[C@@H]3[C@H]1OCc1cn(CCOCCOCCOCCNC(=O)[C@H](CC(C)C)NC(=O)[C@@H](O)[C@@H](Cc3ccccc3)NC(=O)OC(C)(C)C)nn1)C2(C)C | > 20 | > 50 | 
